Data taken from patent US10947242B2, “[1,2,4]triazolo[1,5and#8208;A]pyrimidine compounds as PDE2 inhibitors” (Janssen Pharmaceutica NV, priority 2016, dated 2021).
Several values for one entry are separate records, joined by “and”; a condition that tells them apart may be missing. Equal entries are not always repeated. Where two headings read alike, the source gives them in different places.

Experiments:
[1] = molecular target: T1, Human recombinant PDE2A (hPDE2A) (Homo sapiens, UniProt O00408); assay: In vitro assay PDE2A (SPA, 3H-cGMP hydrolysis); format: biochemical; conditions: for Emax: read-out: hPDE2A Emax
T1 construct: His tag (inferred from metal chelate purification); made in house; host or cells: Sf9 insect cells (baculovirus)

PDE2A = molecular target: T2, PDE2A (Rattus norvegicus, UniProt Q01062); assay: PDE2 occupancy by test compounds, ex-vivo autoradiography with [3H]B-17a; format: in vivo, Male Wistar rats; conditions: for ED50: read-out: PDE Occupancy ED50
T2 construct: Twenty μm-thick striatal sections were cut; from tissue; host or cells: rat brain, striatal sections
T2 sequence (Q01062 1-928): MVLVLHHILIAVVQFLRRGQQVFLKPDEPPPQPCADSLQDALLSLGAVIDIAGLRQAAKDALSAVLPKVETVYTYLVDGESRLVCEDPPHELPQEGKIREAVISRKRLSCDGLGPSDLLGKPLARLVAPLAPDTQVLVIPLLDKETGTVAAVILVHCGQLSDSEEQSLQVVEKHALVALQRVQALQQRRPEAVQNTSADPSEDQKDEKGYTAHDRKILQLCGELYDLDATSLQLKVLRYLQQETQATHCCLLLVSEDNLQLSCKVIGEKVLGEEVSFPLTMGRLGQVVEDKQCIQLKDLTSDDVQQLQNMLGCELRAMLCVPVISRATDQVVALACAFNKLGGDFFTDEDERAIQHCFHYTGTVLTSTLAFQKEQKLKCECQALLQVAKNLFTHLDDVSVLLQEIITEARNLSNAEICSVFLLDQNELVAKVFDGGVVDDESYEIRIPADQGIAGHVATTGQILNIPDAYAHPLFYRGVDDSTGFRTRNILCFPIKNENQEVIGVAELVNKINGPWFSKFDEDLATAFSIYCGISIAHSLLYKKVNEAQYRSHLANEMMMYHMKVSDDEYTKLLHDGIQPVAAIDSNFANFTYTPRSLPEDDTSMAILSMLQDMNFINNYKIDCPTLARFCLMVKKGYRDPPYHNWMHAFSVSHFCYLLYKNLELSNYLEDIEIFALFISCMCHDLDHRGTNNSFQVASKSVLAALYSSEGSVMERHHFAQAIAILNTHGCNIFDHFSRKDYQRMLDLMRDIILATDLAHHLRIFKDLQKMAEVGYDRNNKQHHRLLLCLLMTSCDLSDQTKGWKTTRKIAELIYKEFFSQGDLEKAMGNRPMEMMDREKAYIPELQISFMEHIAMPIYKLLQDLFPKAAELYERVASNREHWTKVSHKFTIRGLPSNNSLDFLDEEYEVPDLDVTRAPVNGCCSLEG

[2] = molecular target: T3, Human recombinant PDE10A (hPDE10A) (Homo sapiens, UniProt Q9Y233); assay: In vitro assay PDE10A, human clone (SPA, 3H-cAMP hydrolysis); format: biochemical
T3 construct: His tag (inferred from metal chelate purification); made in house; host or cells: Sf9 insect cells (baculovirus)
Summary of the method: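 Hydrolysis of 3H-cAMP (60 nM cAMP, 0.008 μCi tracer) proceeded for 60 min at room temperature, with the product detected by SPA bead scintillation counting. The enzyme was hPDE10A from baculovirus-infected Sf9 cells in Tris pH 7.8 buffer with MgCl2 and EGTA, and compounds were at 1% DMSO final. Blanks lacked enzyme.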

[3] = molecular target: T4, Human recombinant PDE3A (hPDE3A) (Homo sapiens, UniProt Q14432); assay: In vitro assay PDE3A (SPA, 3H-cAMP hydrolysis); format: biochemical; conditions: for IC50: hPDE3B pIC50, read-out: pIC50 (converted); for Emax: read-out: hPDE3B Emax, read-out: Emax;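 as to all read-outs here: the method names PDE3A and the table heading PDE3B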
T4 construct: purchased Scottish Biomedical; host or cells: Sf9 insect cells
Summary of the method: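 Radiometric SPA measuring [3H]-cAMP hydrolysis (0.4 μM cAMP, 2.4 μCi/ml) over 60 min at room temperature, in Tris pH 7.8 buffer with MgCl2 and EGTA, 1% DMSO. Enzyme: recombinant human brain PDE3A expressed in Sf9 cells, used as partially purified lysate. Counts compared with enzyme-free blanks and vehicle controls.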

[4] = hPDE2A pIC50, human recombinant PDE2A, 10 μM cGMP substrate
[5] = po, 10 mg/kg, route PO (oral), percentage receptor occupancy, ex-vivo autoradiography, striatum
[6] = human clone (h), default, read-out: hPDE10A2 Emax
[7] = human clone (h), default, read-out: hPDE10A2 pIC50 (converted)
[8] = human recombinant PDE2A, 10 μM cGMP substrate, read-out: hPDE2A pIC50 (converted)
[9] = read-out: hPDE2A pIC50 (converted)
[10] = 10 mg/kg, route SC (subcutaneous), percentage receptor occupancy, ex-vivo autoradiography, striatum
[11] = route PO (oral), drug dose producing 50% receptor occupancy
[12] = human clone by default (no (r) mark), read-out: hPDE10A2 or rPDE10A2 Emax
[13] = human clone by default (no (r) mark), read-out: hPDE10A2 or rPDE10A2 pIC50 (converted)

T3 sequence (Q9Y233 267-1055): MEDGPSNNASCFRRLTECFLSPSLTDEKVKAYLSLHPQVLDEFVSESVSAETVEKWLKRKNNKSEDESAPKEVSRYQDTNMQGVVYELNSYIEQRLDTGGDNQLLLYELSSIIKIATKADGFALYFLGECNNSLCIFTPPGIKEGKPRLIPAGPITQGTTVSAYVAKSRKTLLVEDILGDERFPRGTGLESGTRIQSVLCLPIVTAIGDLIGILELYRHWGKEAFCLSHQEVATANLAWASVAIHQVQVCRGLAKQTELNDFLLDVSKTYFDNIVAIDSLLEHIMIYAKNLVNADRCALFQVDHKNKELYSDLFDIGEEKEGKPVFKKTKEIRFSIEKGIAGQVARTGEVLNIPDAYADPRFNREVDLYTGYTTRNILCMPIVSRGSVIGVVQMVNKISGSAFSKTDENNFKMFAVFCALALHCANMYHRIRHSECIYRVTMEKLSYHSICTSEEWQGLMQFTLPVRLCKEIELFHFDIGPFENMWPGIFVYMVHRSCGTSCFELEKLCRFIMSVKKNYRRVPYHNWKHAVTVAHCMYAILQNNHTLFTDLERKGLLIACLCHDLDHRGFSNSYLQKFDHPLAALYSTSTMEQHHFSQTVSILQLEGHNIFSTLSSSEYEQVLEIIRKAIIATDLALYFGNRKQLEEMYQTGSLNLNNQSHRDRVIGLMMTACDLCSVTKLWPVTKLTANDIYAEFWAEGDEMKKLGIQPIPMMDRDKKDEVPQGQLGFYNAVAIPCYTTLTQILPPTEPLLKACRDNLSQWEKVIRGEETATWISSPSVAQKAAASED
T1 sequence (O00408 whole entry): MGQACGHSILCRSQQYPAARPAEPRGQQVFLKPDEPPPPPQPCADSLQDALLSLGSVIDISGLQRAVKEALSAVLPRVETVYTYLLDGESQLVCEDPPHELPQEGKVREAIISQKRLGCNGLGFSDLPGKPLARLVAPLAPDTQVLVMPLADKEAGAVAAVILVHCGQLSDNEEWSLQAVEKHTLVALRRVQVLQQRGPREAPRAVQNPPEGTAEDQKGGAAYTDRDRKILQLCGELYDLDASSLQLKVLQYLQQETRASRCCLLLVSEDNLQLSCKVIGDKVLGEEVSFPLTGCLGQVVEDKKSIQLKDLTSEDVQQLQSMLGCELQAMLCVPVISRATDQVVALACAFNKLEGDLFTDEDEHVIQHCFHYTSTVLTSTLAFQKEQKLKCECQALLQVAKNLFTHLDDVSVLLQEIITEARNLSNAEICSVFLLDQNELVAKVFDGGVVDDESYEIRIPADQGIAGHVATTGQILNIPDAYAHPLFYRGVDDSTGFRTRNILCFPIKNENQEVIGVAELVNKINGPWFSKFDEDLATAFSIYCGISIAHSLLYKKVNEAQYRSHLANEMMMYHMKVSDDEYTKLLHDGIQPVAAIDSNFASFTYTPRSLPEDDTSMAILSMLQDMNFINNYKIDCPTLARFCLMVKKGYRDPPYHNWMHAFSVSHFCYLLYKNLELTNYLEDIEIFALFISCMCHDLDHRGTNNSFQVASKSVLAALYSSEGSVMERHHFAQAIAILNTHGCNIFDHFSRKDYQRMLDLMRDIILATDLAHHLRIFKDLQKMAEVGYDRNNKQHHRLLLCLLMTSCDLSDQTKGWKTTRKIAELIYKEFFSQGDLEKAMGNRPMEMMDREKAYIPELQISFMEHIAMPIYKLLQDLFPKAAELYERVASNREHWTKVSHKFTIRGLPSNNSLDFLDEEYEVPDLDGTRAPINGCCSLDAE
T4 sequence (Q14432 whole entry): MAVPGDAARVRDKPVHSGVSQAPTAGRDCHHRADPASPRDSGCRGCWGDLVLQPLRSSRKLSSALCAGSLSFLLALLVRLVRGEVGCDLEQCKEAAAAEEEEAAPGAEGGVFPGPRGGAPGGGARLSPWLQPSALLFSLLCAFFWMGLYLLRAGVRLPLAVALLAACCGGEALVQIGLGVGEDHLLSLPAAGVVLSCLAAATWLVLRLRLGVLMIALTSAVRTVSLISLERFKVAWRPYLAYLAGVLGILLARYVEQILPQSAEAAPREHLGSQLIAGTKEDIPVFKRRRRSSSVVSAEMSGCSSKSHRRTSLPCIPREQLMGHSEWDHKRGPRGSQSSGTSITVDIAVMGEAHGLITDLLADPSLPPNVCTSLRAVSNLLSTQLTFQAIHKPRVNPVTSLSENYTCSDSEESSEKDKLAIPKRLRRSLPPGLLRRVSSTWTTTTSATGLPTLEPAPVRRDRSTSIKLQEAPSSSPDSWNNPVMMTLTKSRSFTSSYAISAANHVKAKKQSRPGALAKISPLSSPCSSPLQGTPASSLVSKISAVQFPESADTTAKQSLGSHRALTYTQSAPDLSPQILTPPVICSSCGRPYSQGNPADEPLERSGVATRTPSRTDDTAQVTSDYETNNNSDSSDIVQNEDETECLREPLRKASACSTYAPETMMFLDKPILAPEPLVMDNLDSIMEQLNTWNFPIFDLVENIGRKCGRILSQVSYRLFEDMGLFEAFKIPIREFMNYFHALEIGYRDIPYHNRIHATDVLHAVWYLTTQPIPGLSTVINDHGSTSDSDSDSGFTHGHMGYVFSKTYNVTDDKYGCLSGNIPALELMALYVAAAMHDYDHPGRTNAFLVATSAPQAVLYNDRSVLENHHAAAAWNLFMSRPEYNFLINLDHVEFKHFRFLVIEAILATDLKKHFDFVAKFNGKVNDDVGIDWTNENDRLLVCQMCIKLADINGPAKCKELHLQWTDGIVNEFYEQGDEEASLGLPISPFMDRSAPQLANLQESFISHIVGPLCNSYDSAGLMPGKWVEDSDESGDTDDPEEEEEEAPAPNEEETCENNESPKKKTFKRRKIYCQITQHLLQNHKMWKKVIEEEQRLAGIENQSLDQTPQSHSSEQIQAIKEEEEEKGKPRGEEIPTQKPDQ

receptor occupancy at 10 mg/kg (PDE2A; [5]) [%]	Emax [2, 6] [%]	IC50 [2, 7]	IC50 [1, 8] [nM]	Emax ([1]; human recombinant PDE2A) [%]	IC50 [1, 9] [nM]	Compound	Emax [1] [%]	melting point [°C]	IC50 [3] [nM]	Emax [3] [%]	Emax [2, 12] [%]	IC50 [2, 13] [nM]	other results
	95	513 nM	2.09	99	2.09	Cc1cc(C(=O)N2CC[C@@H](C)[C@H](c3cc(C(F)F)nc4ncnn34)C2)cnc1C [Compound 49]	99	263.81	5750	42			receptor occupancy at 10 mg/kg (PDE2A; sc, 10 mg/kg, route SC (subcutaneous), percentage receptor occupancy, ex-vivo autoradiography, striatum): 12%
2	76	3020 nM	13.8	101	13.8	Cc1cnc(C(F)(F)F)cc1C(=O)N1CC[C@@H](C)[C@H](c2cc(C(F)F)nc3ncnn23)C1 [Compound 52]	101	228.39	> 10000	22			
0	100	45.7 nM	0.407	102	0.407	C[C@@H]1CCN(C(=O)c2cc3ccccc3o2)C[C@H]1c1cc(C(F)F)nc2ncnn12 [Compound 69]	102	209.73	380	95			
0	92	105 nM	1.02	100	1.02	C[C@@H]1CCN(C(=O)c2ccc(Cl)c(C3CC3)c2)C[C@H]1c1cc(C(F)F)nc2ncnn12 [Compound 72]	100	177.6	> 1000	46			
54	98	83.2 nM	0.457	101	0.457	COc1c(C)cc(C(=O)N2CC[C@@H](C)[C@H](c3cc(C(F)F)nc4ncnn34)C2)cc1C [Compound 77]	101	177.37	676	96			ED50 (PDE2A; [11]): 5.67 mg/kg
85	99	36.3 nM and 39.8 nM	0.398	101	0.457	Cc1cc(C(=O)N2CC[C@@H](C)[C@H](c3cc(C(F)F)nc4ncnn34)C2)cc(C2CC2)n1 [Compound 93]	101	201.12	2570	84			ED50 (PDE2A; [11]): 7.8 mg/kg
0	99	21.4 nM	0.891	100	0.891	C[C@@H]1CCN(C(=O)c2ccc3cc[nH]c3c2)C[C@H]1c1cc(C(F)F)nc2ncnn12 [Compound 106]	100	273.02	389	98			
65	99	52.5 nM	0.912	100	0.912	COc1cc(C(=O)N2CC[C@@H](C)[C@H](c3cc(C(F)F)nc4ncnn34)C2)cc(Cl)n1 [Compound 108]	100	151.39	2690	80			ED50 (PDE2A; [11]): 4.8 mg/kg
					0.479	C[C@@H]1CCN(C(=O)c2ccc3ccccc3c2)C[C@H]1c1cc(C(F)F)nc2ncnn12 [Compound 331]	98	193.87	50.1	99	100	14.5	

Compound	receptor occupancy at 10 mg/kg (PDE2A; [5]) [%]	Emax [2, 6] [%]	IC50 [2, 7]	IC50 [1, 8] [nM]	Emax ([1]; human recombinant PDE2A) [%]	IC50 [1, 9] [nM]	Emax [1] [%]	melting point [°C]	IC50 [3] [nM]	Emax [3] [%]	Emax [2, 12] [%]	IC50 [2, 13] [nM]	other results
COc1cc(C(=O)N2CC[C@@H](C)[C@H](c3cc(C)nc4ncnn34)C2)cc(Cl)n1 [Compound 22]	18	99	15.8 nM				100	217.82	1510	87			IC50 ([1]; hPDE2A pIC50): 2.34 nM; IC50 [1, 4]: 2.34 nM; PDE2 Occupancy at 10 mg/kg (PDE2A; 10 mg/kg, route PO (oral), percentage receptor occupancy, ex-vivo autoradiography, striatum): 30
O=C(c1ccc2ncsc2c1)N1[C@H]2CC[C@H](c3cc(C(F)F)nc4ncnn34)[C@@H]1CC2 [Compound 25a]		94	589 nM and 389 nM	0.708	100	1.07	100	240.33	8710	54			receptor occupancy at 10 mg/kg (PDE2A; [10]): 66%; ED50 (PDE2A; po): 4 mg/kg; hPDE10A2 Emax ([2]; human clone (h), default): 96
Cc1cc(C(=O)N2[C@H]3CC[C@H](c4cc(C(F)F)nc5ncnn45)[C@@H]2CC3)cc(C)n1 [Compound 29]		90	692 nM	1.51	101	1.51	101	176.52	> 10000				receptor occupancy at 10 mg/kg (PDE2A; [10]): 31%; hPDE3B Emax [3]: 18
Cc1cc(Cl)cc(C(=O)N2CC[C@@H](C)[C@H](c3cc(C(F)F)nc4ncnn34)C2)c1 [Compound 102]	-4	95	26.3 nM				100	215.44	> 1000	44			IC50 ([1]; hPDE2A pIC50): 0.676 nM; IC50 [1, 4]: 0.676 nM
O=C(c1cc(Cl)cc(Cl)c1)N1[C@H]2CC[C@H](c3cc(C(F)F)nc4ncnn34)[C@@H]1CC2 [Compound 333]						8.13	99	291.55	6920	63	93	708	
CC(C)n1ccc2cc(C(=O)N3[C@H]4CC[C@H](c5cc(C(F)F)nc6ncnn56)[C@@H]3CC4)ccc21 [Compound 355]						0.933	99	146.08	724	98	98	234	
O=C(c1cn2ccsc2n1)N1[C@H]2CC[C@H](c3cc(C(F)F)nc4ncnn34)[C@@H]1CC2 [Compound 360]						40.7	97	264.8	8510	50	55	6920	
Cc1cc(C(=O)N2[C@H]3CC[C@H](c4cc(C(F)F)nc5ncnn45)[C@@H]2CC3)ccc1Cl [Compound 375]						3.55	101	171.51	4470	73	94	813	
COc1ccc(C(=O)N2[C@H]3CC[C@H](c4cc(C(F)F)nc5ncnn45)[C@@H]2CC3)cc1Cl [Compound 376]						4.27	101	175.71	3390	79	97	309	
O=C(c1ccc(F)c(Cl)c1)N1[C@H]2CC[C@H](c3cc(C(F)F)nc4ncnn34)[C@@H]1CC2 [Compound 377]						17.8	99	183.67	9770	47	89	1290	
